Measured values from US10544125B2, “Process for preparing an anti-cancer agent, 1-((4-(4-fluoro-2-methyl-1H-indol-5-yloxy)-6-methoxyquinolin-7-yloxy)methyl)cyclopropanamine, its crystalline form and its salts” (Advenchen Pharmaceuticals, LLC, priority 2015, dated 2020).
In brackets after ≈: the same amount, converted by molar mass. Where a name gives a salt, the structure may show the parent alone.

Tests used:
BEL7404 (liver) = experiment: In vitro MTT (proliferation) assay; type: cell-based; conditions: BEL7404 cancer cell line
Description: (§1) In vitro MTT (proliferation) assay was performed with compound from above examples to give following inhibition results: […]

HCT1 16 (colon) = experiment: In vitro MTT (proliferation) assay; type: cell-based; conditions: HCT1 16 cancer cell line
Description: as §1

Hela (cervical) = experiment: In vitro MTT (proliferation) assay; type: cell-based; conditions: Hela cancer cell line
Description: as §1

MDA-MB-231 (breast) = experiment: In vitro MTT (proliferation) assay; type: cell-based; conditions: MDA-MB-231 cancer cell line
Description: as §1

MKN45 (gastric) = experiment: In vitro MTT (proliferation) assay; type: cell-based; conditions: MKN45 cancer cell line
Description: as §1

NC1-H157 (lung) = experiment: In vitro MTT (proliferation) assay; type: cell-based; conditions: NC1-H157 cancer cell line
Description: as §1

PANC-1 (pancreatic) = experiment: In vitro MTT (proliferation) assay; type: cell-based; conditions: PANC-1 cancer cell line
Description: as §1

PC-3 (prostate) = experiment: In vitro MTT (proliferation) assay; type: cell-based; conditions: PC-3 cancer cell line
Description: as §1

SKOV3 (ovarian) = experiment: In vitro MTT (proliferation) assay; type: cell-based; conditions: SKOV3 cancer cell line
Description: as §1

SW579 (thyroid) = experiment: In vitro MTT (proliferation) assay; type: cell-based; conditions: SW579 cancer cell line
Description: as §1

Saos-2 (sarcoma) = experiment: In vitro MTT (proliferation) assay; type: cell-based; conditions: Saos-2 cancer cell line
Description: as §1

Ishikawa (endometrial) = experiment: In vitro MTT (proliferation) assay; type: cell-based, human; conditions: Ishikawa cancer cell line
Description: as §1

[1] = Conventional water solubility test; type: physicochemical
Source text: Conventional water solubility test has been conducted to give the following results: […]

laser-induced CNV = experiment: Mouse model of laser-induced choroidal neovascularization (CNV); type: in vivo, C57 BL/6 mice; conditions: for reduction in average size of laser-induced CNV: C57 BL/6 mice, day -1 to day 10, FIG. 18
Description: A mouse model of laser-induced choroidal neovascularization (CNV)
(1) Experiments were performed in C57 BL/6 mice at 10 to 12 weeks of age. Laser CNV was induced with a 532 nm diode laser mounted on a slit lamp, using […], 100 ms duration and 100 mW laser energy. Each eye received 4 laser burns. Stock solution of AL3818-H1 was made by dissolving the compound in water to 25 mg/ml concentration, and further diluted to working solution of either 250 or 25 μg/ml in water. Mice were orally gavaged at dosage of 2.5 or 0.25 mg/kg body weight, in volume of 200 μl per 20 gram of body weight, once every day starting at one day before laser treatment until 10 days afterwards. Control group mice will receive gavage with water which is used to dissolve the compound. By the end of the experiment, mice were subjected to fluorescence angiography to exclude the spots with hemorrhage and other mechanic injuries caused by the procedures. Mice were sacrificed and CNV size was measured by immunostaining of RPE/choroid flat mount co-stained with FITC-conjugated isolectin B4 and anti-ICAM2 antibody. For groups of control, 0.25 mg/kg and 2.5 mg/kg, we examined 43, 44 and 49 eyes on RPE/choroid flat mount. After immunostaining, images were taken on a Zeiss fluorescence microscope. CNV size was measured in Image J software. […] (2) The potential synergistic or additive effects between AL3818-M and anti-VEGF antibody was also studied. Immediately after laser burn, mice were treated with a monoclonal VEGF neutralizing antibody from R&D Systems (mAb AF564) at 1 μg dosage by intravitreal injection. We had 4 experimental groups: control (treated with water), AL3818-M, anti-VEGF, and AL3818-M+anti-VEGF. A total of 75 laser spots were analyzed. Mice in control or AL3818-M alone group received the intravitreal injection of saline in the same 2 μl volume.

| Structure (SMILES) | IC50 (BEL7404 (liver)) [µM] | IC50 (HCT1 16 (colon); MTT (proliferation) assay) [µM] | IC50 (Hela (cervical)) [µM] | IC50 (MDA-MB-231 (breast); MTT (proliferation) assay) [µM] | IC50 (MKN45 (gastric)) [µM] | IC50 (NC1-H157 (lung)) [µM] | IC50 (PANC-1 (pancreatic); MTT (proliferation) assay) [µM] | IC50 (PC-3 (prostate)) [µM] | IC50 (SKOV3 (ovarian); MTT (proliferation) assay) [µM] | IC50 (SW579 (thyroid)) [µM] | IC50 (Saos-2 (sarcoma); MTT (proliferation) assay) [µM] | IC50 (Ishikawa (endometrial)) [µM] | water solubility [1] [µg/mL] | solubility [1] [µg/mL] | other results |
| --- | --- | --- | --- | --- | --- | --- | --- | --- | --- | --- | --- | --- | --- | --- | --- |
| COc1cc2c(Oc3ccc4[nH]c(C)cc4c3F)ccnc2cc1OCC1(N)CC1 [AL3818-F, 1-((4-(4-Fluoro-2-methyl-1H-indol-5-yloxy)-6-methoxyquinolin-7-yloxy)methyl)cyclopropanamine] | 0.93 | 3.25 | 3.23 | 5.56 | 3.11 | 1.83 | 1.34 | 5.11 | 5.97 | 1 | 5.13 | 1.04 | 20 (≈ 49.1 µM) |  |  |
| COc1cc2c(Oc3ccc4[nH]c(C)cc4c3F)ccnc2cc1OCC1(N)CC1.O=C(O)/C=C\C(=O)O.O=C(O)/C=C\C(=O)O [AL3818-M, 1-((4-(4-Fluoro-2-methyl-1H-indol-5-yloxy)-6-methoxy-quinolin-7-yloxy)-methyl)cyclopropanamine Bismaleic Acid Salt] | 1.15 | 4.62 | 3.94 | 5.37 | 2.65 | 2.02 | 1.15 | 3.62 | 6.56 | 1.15 | 5.49 | 1.34 |  | 500 | reduction in laser CNV as compared to the control group (laser-induced CNV; 0.15 mg/kg together with 1 μg anti-VEGF antibody (mAb AF564) intravitreal, P<0.01, FIG. 19): ~30% |
| COc1cc2c(Oc3ccc4[nH]c(C)cc4c3F)ccnc2cc1OCC1(N)CC1.O=C(O)CCC(=O)O [AL3818-S, 1-((4-(4-Fluoro-2-methyl-1H-indol-5-yloxy)-6-methoxy-quinolin-7-yloxy)methyl)cyclopropanamine Succinic Acid Salt] | 1.43 | 3.94 | 4.66 | 6.1 | 4.16 | 2.28 | 1.24 | 4.41 | 7.6 | 2.61 | 5.68 | 1.32 |  | 100 |  |
| COc1cc2c(Oc3ccc4[nH]c(C)cc4c3F)ccnc2cc1OCC1(N)CC1 [AL3818-H1, 1-((4-(4-Fluoro-2-methyl-1H-indol-5-yloxy)-6-methoxy-quinolin-7-yloxy)-methyl)cyclopropanamine Bishydrochloride Acid Salt] | 2.75 |  |  |  | 1.77 | 7.18 |  | 5.53 |  | 2.33 |  | 5.67 | 6000 |  | IC50 (HCT1 16 (colon); Homo sapiens, HCT-116, MTT (proliferation) assay): 3.45 µM; IC50 (Hela (cervical); Homo sapiens, HeLa): 3.7 µM; IC50 (MDA-MB-231 (breast); Homo sapiens, MDA-MB-231, MTT (proliferation) assay): 10.2 µM; IC50 (PANC-1 (pancreatic); Homo sapiens, PANC-1, MTT (proliferation) assay): 1.58 µM; IC50 (SKOV3 (ovarian); Homo sapiens, SK-OV-3, MTT (proliferation) assay): 5.34 µM; IC50 (Saos-2 (sarcoma); Homo sapiens, SAOS-2, MTT (proliferation) assay): 4.68 µM; reduction in average size of laser-induced CNV (laser-induced CNV; oral gavage 0.25 mg/kg body weight once daily): ~70%; reduction in average size of laser-induced CNV (laser-induced CNV; oral gavage 2.5 mg/kg body weight once daily): ~70% |
| COc1cc2c(Oc3ccc4[nH]c(C)cc4c3F)ccnc2cc1OCC1(N)CC1.Cl.Cl.O [AL3818-H2, 1-((4-(4-Fluoro-2-methyl-1H-indol-5-yloxy)-6-methoxy-quinolin-7-yloxy)methyl)cyclopropanamine bishydrochloridehydrate Acid Salt] | 1.74 | 3.34 | 4.07 | 5.71 | 3.9 | 2.29 | 1.55 | 3.88 | 5.7 | 1.29 | 4.98 | 1.56 | 7000 |  |  |
